# What was measured:
# Assay type in all cases: cell-based
# [1] = test system: beneficial oral bacteria and pathogenic oral bacteria; experiment: Twenty-four hour optical density, overall prebiotic assessment; conditions: concentrations of 5, 10, 20 and 25 μmol/ml
# Description: Substrates that were able to increase the growth (or maximal growth density or extent of growth) of at least one of the above beneficial bacteria while not or only minimally increasing the growth (or maximal growth density) of the pathogenic bacteria are considered to be prebiotic compounds.
# The extent of growth of the tested bacteria in response to selected saccharides (myo-inositol, D-lactitol, D-turanose and N-acetyl-D-mannosamine) was investigated by setting up growth curves in a nutritionally rich medium (brain heart infusion broth (BHI), Oxoid), over 24 hours. Late exponential growth phase liquid cultures were prepared by transferring the respective bacterium from blood agar plates to BHI and overnight incubation at 37° C. in an anaerobic atmosphere for A. viscosus, V. parvula, F. nucleatum, P. gingivalis, P. intermedia, T. forsythia, A. naeslundii, and C. sputigena, and in a 5% CO2 environment for S. salivarius, S. sanguinis, S. mitis, A. actinomycetemcomitans, S. mutans, S. sobrinus and S. gordonii. […]
# (§1) For each combination of bacterium/saccharide, and for each of their respective controls (i.e. the particular bacterium in the nutritionally rich medium with no saccharide), the optical density was measured at 630 nm (OD630) at 0 h and 24 h (Thermo Scientific Multiskan Ascent). Additionally, the OD630 for combinations of bacterium/saccharides grown in a 5% CO2 environment were also measured every hour between 0 h and 9 h.
# The experiment was carried out on three different days (thus providing 3 biological replicas) and on each day the experiment was carried out in quadruple (thus providing 4 technical replicas) for each combination of bacterium with saccharide and for each control. For each day and for each combination, the average (mean) of the values obtained (as detailed above) for the four technical replicas was calculated to provide a single value for each combination on each day. […]
# Streptococcus gordonii = experiment: Twenty-four hour optical density growth in BHI; conditions: S gordonii
# Protocol: (§2) The extent of growth of the tested bacteria in response to selected saccharides (myo-inositol, D-lactitol, D-turanose and N-acetyl-D-mannosamine) was investigated by setting up growth curves in a nutritionally rich medium (brain heart infusion broth (BHI), Oxoid), over 24 hours. Late exponential growth phase liquid cultures were prepared by transferring the respective bacterium from blood agar plates to BHI and overnight incubation at 37° C. in an anaerobic atmosphere for A. viscosus, V. parvula, F. nucleatum, P. gingivalis, P. intermedia, T. forsythia, A. naeslundii, and C. sputigena, and in a 5% CO2 environment for S. salivarius, S. sanguinis, S. mitis, A. actinomycetemcomitans, S. mutans, S. sobrinus and S. gordonii. Overnight cultures were transferred to BHI and adjusted to a concentration of 1×10^7 CFU/ml (colony forming units per ml) by measuring the optical density at 600 nm (OD600) (BioRad SmartSpec 3000). For each strain, 200 μl of the bacterial suspension was added to a 96-well plate containing 20 μl of the respective saccharides. Final concentrations of the saccharides were set to 5, 10, 20 and 25 μmol/ml. […] Plates were incubated as previously described.
# as §1
# (§3) The experiment was carried out on three different days (thus providing 3 biological replicas) and on each day the experiment was carried out in quadruple (thus providing 4 technical replicas) for each combination of bacterium with saccharide and for each control. For each day and for each combination, the average (mean) of the values obtained (as detailed above) for the four technical replicas was calculated to provide a single value for each combination on each day. The values shown in Tables 5a,b to 6a,b, below, are the average (mean) of the three single values obtained for each combination of bacterium with saccharide.
# Fusobacterium nucleatum = experiment: Twenty-four hour optical density growth in BHI; conditions: F nucleatum
# Protocol: as §2, §1, §3
# Actinomyces naeslundii = experiment: Twenty-four hour optical density growth in BHI; conditions: A naeslundii
# Protocol: as §2, §1, §3
# Porphyromonas gingivalis = experiment: Twenty-four hour optical density growth in BHI; conditions: P gingivalis
# Protocol: as §2, §1, §3
# [2] = test system: Aggregatibacter actinomycetemcomitans; experiment: Twenty-four hour optical density growth in BHI; conditions: A actinomycetemcomitans
# Protocol: as §2, §1, §3
# Prevotella intermedia = experiment: Twenty-four hour optical density growth in BHI; conditions: P intermedia
# Protocol: as §2, §1, §3
# Streptococcus sobrinus = experiment: Twenty-four hour optical density growth in BHI; conditions: S sobrinus
# Protocol: as §2, §1, §3
# Capnocytophaga sputigena = experiment: Twenty-four hour optical density growth in BHI; conditions: C sputigena
# Protocol: as §2, §1, §3
# Veillonella parvula = experiment: Twenty-four hour optical density growth in BHI; conditions: V parvula
# Protocol: as §2, §1, §3
# Streptococcus mitis = experiment: Twenty-four hour optical density growth in BHI; conditions: S mitis
# Protocol: as §2, §1, §3
# S. sanguinis = experiment: Twenty-four hour optical density growth in BHI
# Protocol: as §2, §1, §3
# Tannerella forsythia = experiment: Twenty-four hour optical density growth in BHI; conditions: T forsythia
# Protocol: as §2, §1, §3
# Actinomyces viscosus = experiment: Twenty-four hour optical density growth in BHI; conditions: A viscosus
# Protocol: as §2, §1, §3
# Streptococcus salivarius = experiment: Twenty-four hour optical density growth in BHI; conditions: S salivarius
# Protocol: as §2, §1, §3
# Streptococcus mutans = experiment: Twenty-four hour optical density growth in BHI; conditions: S mutans
# Protocol: as §2, §1, §3
structure (smiles),measurement,setting,value
"OC[C@H]1O[C@@](O)(CO)[C@@H](O[C@H]2O[C@H](CO)[C@@H](O)[C@H](O)[C@H]2O)[C@@H]1O [D-Turanose, α-D-glucopyranosyl-(1→3)-α-D-fructofuranose]","prebiotic effects (extent of growth, threshold value 1.25)",[1],exhibited prebiotic effects
same,extent of growth: maximal OD630 over 24 hr divided by maximal OD of control (control = 1),Streptococcus gordonii; 5 μmol/ml,1.0397
same,extent of growth: maximal OD630 over 24 hr divided by maximal OD of control (control = 1),Streptococcus gordonii; 10 μmol/ml,1.0491
same,extent of growth: maximal OD630 over 24 hr divided by maximal OD of control (control = 1),Streptococcus gordonii; 20 μmol/ml,1.0248
same,extent of growth: maximal OD630 over 24 hr divided by maximal OD of control (control = 1),Streptococcus gordonii; 25 μmol/ml,1.0226
same,extent of growth: maximal OD630 over 24 hr divided by maximal OD of control (control = 1),Fusobacterium nucleatum; 5 μmol/ml,0.9458
same,extent of growth: maximal OD630 over 24 hr divided by maximal OD of control (control = 1),Fusobacterium nucleatum; 10 μmol/ml,0.9456
same,extent of growth: maximal OD630 over 24 hr divided by maximal OD of control (control = 1),Fusobacterium nucleatum; 20 μmol/ml,0.9285
same,extent of growth: maximal OD630 over 24 hr divided by maximal OD of control (control = 1),Fusobacterium nucleatum; 25 μmol/ml,0.9348
same,extent of growth: maximal OD630 over 24 hr divided by maximal OD of control (control = 1),Actinomyces naeslundii; 5 μmol/ml,0.9281
same,extent of growth: maximal OD630 over 24 hr divided by maximal OD of control (control = 1),Actinomyces naeslundii; 10 μmol/ml,0.9561
same,extent of growth: maximal OD630 over 24 hr divided by maximal OD of control (control = 1),Actinomyces naeslundii; 20 μmol/ml,0.9443
same,extent of growth: maximal OD630 over 24 hr divided by maximal OD of control (control = 1),Actinomyces naeslundii; 25 μmol/ml,0.9441
same,extent of growth: maximal OD630 over 24 hr divided by maximal OD of control (control = 1),Porphyromonas gingivalis; 5 μmol/ml,0.9385
same,extent of growth: maximal OD630 over 24 hr divided by maximal OD of control (control = 1),Porphyromonas gingivalis; 10 μmol/ml,0.9601
same,extent of growth: maximal OD630 over 24 hr divided by maximal OD of control (control = 1),Porphyromonas gingivalis; 20 μmol/ml,0.9183
same,extent of growth: maximal OD630 over 24 hr divided by maximal OD of control (control = 1),Porphyromonas gingivalis; 25 μmol/ml,0.9574
same,extent of growth: maximal OD630 over 24 hr divided by maximal OD of control (control = 1),[2]; 5 μmol/ml,0.7962
same,extent of growth: maximal OD630 over 24 hr divided by maximal OD of control (control = 1),[2]; 10 μmol/ml,0.8318
same,extent of growth: maximal OD630 over 24 hr divided by maximal OD of control (control = 1),[2]; 20 μmol/ml,0.8672
same,extent of growth: maximal OD630 over 24 hr divided by maximal OD of control (control = 1),[2]; 25 μmol/ml,0.8368
same,extent of growth: maximal OD630 over 24 hr divided by maximal OD of control (control = 1),Prevotella intermedia; 5 μmol/ml,1.1488
same,extent of growth: maximal OD630 over 24 hr divided by maximal OD of control (control = 1),Prevotella intermedia; 10 μmol/ml,1.1312
same,extent of growth: maximal OD630 over 24 hr divided by maximal OD of control (control = 1),Prevotella intermedia; 20 μmol/ml,1.0407
same,extent of growth: maximal OD630 over 24 hr divided by maximal OD of control (control = 1),Prevotella intermedia; 25 μmol/ml,0.9664
same,extent of growth: maximal OD630 over 24 hr divided by maximal OD of control (control = 1),Streptococcus sobrinus; 5 μmol/ml,1.1731
same,extent of growth: maximal OD630 over 24 hr divided by maximal OD of control (control = 1),Streptococcus sobrinus; 10 μmol/ml,1.1323
same,extent of growth: maximal OD630 over 24 hr divided by maximal OD of control (control = 1),Streptococcus sobrinus; 20 μmol/ml,1.0466
same,extent of growth: maximal OD630 over 24 hr divided by maximal OD of control (control = 1),Streptococcus sobrinus; 25 μmol/ml,1.0760
same,extent of growth: maximal OD630 over 24 hr divided by maximal OD of control (control = 1),Capnocytophaga sputigena; 5 μmol/ml,0.9568
same,extent of growth: maximal OD630 over 24 hr divided by maximal OD of control (control = 1),Capnocytophaga sputigena; 10 μmol/ml,0.9629
same,extent of growth: maximal OD630 over 24 hr divided by maximal OD of control (control = 1),Capnocytophaga sputigena; 20 μmol/ml,0.9558
same,extent of growth: maximal OD630 over 24 hr divided by maximal OD of control (control = 1),Capnocytophaga sputigena; 25 μmol/ml,0.9630
same,extent of growth: maximal OD630 over 24 hr divided by maximal OD of control (control = 1),Veillonella parvula; 5 μmol/ml,1.0000
same,extent of growth: maximal OD630 over 24 hr divided by maximal OD of control (control = 1),Veillonella parvula; 10 μmol/ml,0.9980
same,extent of growth: maximal OD630 over 24 hr divided by maximal OD of control (control = 1),Veillonella parvula; 20 μmol/ml,0.9904
same,extent of growth: maximal OD630 over 24 hr divided by maximal OD of control (control = 1),Veillonella parvula; 25 μmol/ml,1.0049
same,extent of growth: maximal OD630 over 24 hr divided by maximal OD of control (control = 1),Streptococcus mitis; 5 μmol/ml,1.4244
same,extent of growth: maximal OD630 over 24 hr divided by maximal OD of control (control = 1),Streptococcus mitis; 10 μmol/ml,1.4274
same,extent of growth: maximal OD630 over 24 hr divided by maximal OD of control (control = 1),Streptococcus mitis; 20 μmol/ml,1.3589
same,extent of growth: maximal OD630 over 24 hr divided by maximal OD of control (control = 1),Streptococcus mitis; 25 μmol/ml,1.2710
same,extent of growth: maximal OD630 over 24 hr divided by maximal OD of control (control = 1),S. sanguinis; 5 μmol/ml,0.8399
same,extent of growth: maximal OD630 over 24 hr divided by maximal OD of control (control = 1),S. sanguinis; 10 μmol/ml,0.8356
same,extent of growth: maximal OD630 over 24 hr divided by maximal OD of control (control = 1),S. sanguinis; 20 μmol/ml,0.8262
same,extent of growth: maximal OD630 over 24 hr divided by maximal OD of control (control = 1),S. sanguinis; 25 μmol/ml,0.7991
same,extent of growth: maximal OD630 over 24 hr divided by maximal OD of control (control = 1),Tannerella forsythia; 5 μmol/ml,0.9443
same,extent of growth: maximal OD630 over 24 hr divided by maximal OD of control (control = 1),Tannerella forsythia; 10 μmol/ml,0.9445
same,extent of growth: maximal OD630 over 24 hr divided by maximal OD of control (control = 1),Tannerella forsythia; 20 μmol/ml,0.9299
same,extent of growth: maximal OD630 over 24 hr divided by maximal OD of control (control = 1),Tannerella forsythia; 25 μmol/ml,0.9298
same,extent of growth: maximal OD630 over 24 hr divided by maximal OD of control (control = 1),Actinomyces viscosus; 5 μmol/ml,0.3631
same,extent of growth: maximal OD630 over 24 hr divided by maximal OD of control (control = 1),Actinomyces viscosus; 10 μmol/ml,0.3079
same,extent of growth: maximal OD630 over 24 hr divided by maximal OD of control (control = 1),Actinomyces viscosus; 20 μmol/ml,0.2558
same,extent of growth: maximal OD630 over 24 hr divided by maximal OD of control (control = 1),Actinomyces viscosus; 25 μmol/ml,0.2348
same,extent of growth: maximal OD630 over 24 hr divided by maximal OD of control (control = 1),Streptococcus salivarius; 5 μmol/ml,0.9483
same,extent of growth: maximal OD630 over 24 hr divided by maximal OD of control (control = 1),Streptococcus salivarius; 10 μmol/ml,0.9662
same,extent of growth: maximal OD630 over 24 hr divided by maximal OD of control (control = 1),Streptococcus salivarius; 20 μmol/ml,0.9401
same,extent of growth: maximal OD630 over 24 hr divided by maximal OD of control (control = 1),Streptococcus salivarius; 25 μmol/ml,0.9445
same,extent of growth: maximal OD630 over 24 hr divided by maximal OD of control (control = 1),Streptococcus mutans; 5 μmol/ml,1.0547
same,extent of growth: maximal OD630 over 24 hr divided by maximal OD of control (control = 1),Streptococcus mutans; 10 μmol/ml,0.9829
same,extent of growth: maximal OD630 over 24 hr divided by maximal OD of control (control = 1),Streptococcus mutans; 20 μmol/ml,0.9244
same,extent of growth: maximal OD630 over 24 hr divided by maximal OD of control (control = 1),Streptococcus mutans; 25 μmol/ml,0.9121
